Key:
liver fibrosis model = conditions: carbon tetrachloride (CCL4) administration and bile duct ligation; previous studies; cited from earlier work
lung fibrosis model = conditions: bleomycin (BLM); previous studies; cited from earlier work
[1] = test system: AML12 cells (mouse hepatocyte cell lines); test: Fibrosis markers by Western blotting after TGF-β induction, TGF-β receptor inhibitor; type: cell-based; conditions: 2 ng/ml TGF-β, 10 μM EW-7197, 24 hours, FIG. 2
Description: Cell experiments were performed by using AML12, […], and LX-2 cells, a human hepatic stellate cell.
AML12 cells were cultured in a culture medium made by adding 5 ml of insulin (ITS), 40 ng/ml of dexamethasone, 1% penicillin streptomycin (anti-anti), and 10% fetal bovine serum (FBS) to F-12 media (Corning Incorporated, USA, Arizona), a mixture of a DMEM medium and Ham's F-12 at a ratio of 50:50, which is used for culturing hepatocytes or prostate epithelial cells.
Fibrosis was induced in hepatocytes with TGF-β, a TGF-β receptor inhibitor was administered, and fibrosis was checked.
Specifically, 2 ng/ml of TGF-β was administered to the cells of Example 1-1, and administered or not administered with 10 μM EW-7197 (EW), and cultured for 24 hours. The control group (Con) was not treated with either TGF-β or the sample. […] A protein concentration was measured by BCA assay (Pierce Biotechnology Inc). […] Then, the membranes were washed, briefly incubated with Pico Enhanced Peroxidase Detection (EPD) Western reagent (ELPISBIOTECH. INC.) according to the manufacturer's procedure, and quantified by using an image analyzer (ImageQuant™ LAS 500, GE Healthcare Bio-Sciences AB, Uppsala, Sweden). β-actin was used as an internal control. Densitometry of protein intensity was quantified by using ImageJ (National Institutes of Health). […]

[2] = test system: C57BL/6 mice in which steatohepatitis was induced with a methionine-choline deficient diet; test: Steatohepatitis animal model (MCD), curcumin 5-8 and low-concentration EW-7197 (5 mg/kg); type: in vivo, mouse; conditions: MCD-fed C57BL/6 mice, 6 weeks; EW-7197 5 mg/kg oral; curcumin 5-8 1 g per 1 kg diet
Description: 8-week-old male C57BL/6 mice weighing 20 to 25 g were purchased from Dae Han Bio Link Co., Ltd. (Chungbuk). […] Mice were fed with a normal diet (Research Diets, RD) and allowed to drink water freely. […] In order to confirm the physiological changes in case of co-administration of a curcumin derivative (Cur5-8) and a TGF-β receptor inhibitor (EW-7197), the liver weights and the concentrations of TG, TC, AST, ALT, and γ-GT in serum were measured. In addition, hydroxyprolin expression was checked as a fibrosis marker in the liver tissues. Specifically, the weights of the liver tissues harvested in Examples 2-1 and 2-2 were measured before storage. […] In order to measure blood glucose, triglyceride, cholesterol, and AST and ALT concentrations, ELISA kit of Asan Pharm. Co., Ltd. was purchased, and the measuring was performed. γ-GT in the liver was measured by using Mak089 of Sigma-Aldrich, and hydroxyproline was measured by using STA-675 ELISA kit of Cell Biolabs, Inc. In addition, the hydroxyprolin expression was checked in the liver tissues harvested in Examples 2-1 and 2-2. In order to check effects of inhibiting fat accumulation in liver tissues and fibrosis in liver tissues in case of co-administration of a curcumin derivative (Cur5-8) and a TGF-β receptor inhibitor (EW-7197), the liver tissues were stained. The liver tissues harvested in Examples 2-1 and 2-2 were fixed with 10% formaldehyde, the formaldehyde was washed out with running water for more than 12 hours, and then washing was performed with 60% ethanol at a one-hour interval, with 70% ethanol at a one-hour interval, and with 100% ethanol at a one-hour interval. Then, the transparency process in xylene was performed three times for one hour each, and the infiltration process in paraffin was performed twice for one hour each. Then, the paraffin block was cut to a thickness of about […] to obtain slices. […] In addition, H&E-stained liver slices were evaluated by using the NAFLD activity score (NAS) system. […]

SMILES: Cc1cccc(-c2[nH]c(CNc3ccccc3F)nc2-c2ccc3ncnn3c2)n1 [EW-7197, N-(2-fluorophenyl)-5-(6-methyl-2-pyridinyl)-4-[1,2,4]triazolo[1,5-a]pyridin-6-yl-1H-imidazole-2-methanamine]
- liver damage (liver fibrosis model): suppressing liver damage
- tissue fibrosis (lung) (lung fibrosis model): suppressing tissue fibrosis
- protein expressions of α-SMA, Coll, p-SMAD2, and p-SMAD3 increased by TGF-β [1]: inhibited
- ALT [2]: 96.1 ± 17.96 IU/L
- AST [2]: 159.6 ± 26.73 IU/L
- TG [2]: 28.3 ± 4.84 mg/dL

From patent US20230364069A1, “METHOD FOR TREATING NON-ALCOHOLIC STEATOHEPATITIS THROUGH CO-ADMINISTRATION OF CURCUMIN DERIVATIVE AND TGF-B RECEPTOR INHIBITOR” (UNIVERSITY INDUSTRY FOUNDATION, YONSEI UNIVERSITY WONJU …, priority 2021, published 2023)
